From paper doi:10.1101/2023.11.24.568596v1 (biorxiv, 2023)

Columns and labels:
Conditions in all cases: binder
CaMK1d = CaMK1d (Homo sapiens, UniProt Q8IU85)
CaMK4 = biological target: T1, CaMK4 (Homo sapiens, UniProt Q16566)
T1 sequence (Q16566 1-473): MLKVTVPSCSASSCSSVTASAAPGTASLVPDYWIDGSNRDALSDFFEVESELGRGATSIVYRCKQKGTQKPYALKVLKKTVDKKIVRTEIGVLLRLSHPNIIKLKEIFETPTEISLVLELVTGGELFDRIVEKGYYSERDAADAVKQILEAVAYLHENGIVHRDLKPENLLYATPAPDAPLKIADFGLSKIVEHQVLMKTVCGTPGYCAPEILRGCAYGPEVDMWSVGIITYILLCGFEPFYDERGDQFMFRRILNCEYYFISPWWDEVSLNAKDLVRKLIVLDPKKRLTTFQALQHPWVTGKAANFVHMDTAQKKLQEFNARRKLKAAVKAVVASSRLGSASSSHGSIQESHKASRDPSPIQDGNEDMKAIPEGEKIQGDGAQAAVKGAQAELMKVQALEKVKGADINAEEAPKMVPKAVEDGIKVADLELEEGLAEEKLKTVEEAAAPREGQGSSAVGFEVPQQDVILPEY

DAPK3 = DAPK3 (Homo sapiens, UniProt O43293)
Sequence of DAPK3 (O43293 whole entry): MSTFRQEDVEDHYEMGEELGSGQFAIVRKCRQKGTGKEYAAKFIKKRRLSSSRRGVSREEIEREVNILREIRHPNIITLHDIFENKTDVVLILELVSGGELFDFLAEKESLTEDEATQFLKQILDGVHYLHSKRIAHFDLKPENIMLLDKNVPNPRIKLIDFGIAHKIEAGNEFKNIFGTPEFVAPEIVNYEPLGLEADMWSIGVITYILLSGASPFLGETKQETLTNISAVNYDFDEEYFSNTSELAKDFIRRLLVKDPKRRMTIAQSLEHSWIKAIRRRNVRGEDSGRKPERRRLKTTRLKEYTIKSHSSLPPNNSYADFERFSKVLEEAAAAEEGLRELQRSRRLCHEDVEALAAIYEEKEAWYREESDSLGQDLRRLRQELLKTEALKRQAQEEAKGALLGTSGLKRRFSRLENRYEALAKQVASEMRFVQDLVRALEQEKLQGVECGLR

DYRK2 = biological target: T2, DYRK2 (Homo sapiens, UniProt Q92630)
T2 sequence (Q92630 1-601): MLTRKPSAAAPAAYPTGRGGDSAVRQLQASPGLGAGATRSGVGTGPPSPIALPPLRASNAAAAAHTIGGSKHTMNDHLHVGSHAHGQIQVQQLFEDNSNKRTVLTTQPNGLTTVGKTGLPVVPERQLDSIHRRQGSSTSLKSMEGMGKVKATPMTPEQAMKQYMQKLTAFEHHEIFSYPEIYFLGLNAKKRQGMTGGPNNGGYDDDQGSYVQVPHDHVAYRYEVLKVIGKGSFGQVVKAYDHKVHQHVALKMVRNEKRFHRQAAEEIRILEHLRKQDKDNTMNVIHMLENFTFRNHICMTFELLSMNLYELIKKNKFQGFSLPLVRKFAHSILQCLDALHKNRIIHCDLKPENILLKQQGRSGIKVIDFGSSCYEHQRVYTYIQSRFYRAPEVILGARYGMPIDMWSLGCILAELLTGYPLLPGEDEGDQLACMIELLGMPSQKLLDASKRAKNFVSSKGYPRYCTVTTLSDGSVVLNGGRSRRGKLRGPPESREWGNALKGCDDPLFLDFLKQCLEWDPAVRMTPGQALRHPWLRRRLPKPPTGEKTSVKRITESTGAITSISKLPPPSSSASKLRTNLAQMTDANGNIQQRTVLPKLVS

Erk7 = biological target: T3, Erk7 (Homo sapiens, UniProt Q8TD08)
T3 sequence (Q8TD08 1-544): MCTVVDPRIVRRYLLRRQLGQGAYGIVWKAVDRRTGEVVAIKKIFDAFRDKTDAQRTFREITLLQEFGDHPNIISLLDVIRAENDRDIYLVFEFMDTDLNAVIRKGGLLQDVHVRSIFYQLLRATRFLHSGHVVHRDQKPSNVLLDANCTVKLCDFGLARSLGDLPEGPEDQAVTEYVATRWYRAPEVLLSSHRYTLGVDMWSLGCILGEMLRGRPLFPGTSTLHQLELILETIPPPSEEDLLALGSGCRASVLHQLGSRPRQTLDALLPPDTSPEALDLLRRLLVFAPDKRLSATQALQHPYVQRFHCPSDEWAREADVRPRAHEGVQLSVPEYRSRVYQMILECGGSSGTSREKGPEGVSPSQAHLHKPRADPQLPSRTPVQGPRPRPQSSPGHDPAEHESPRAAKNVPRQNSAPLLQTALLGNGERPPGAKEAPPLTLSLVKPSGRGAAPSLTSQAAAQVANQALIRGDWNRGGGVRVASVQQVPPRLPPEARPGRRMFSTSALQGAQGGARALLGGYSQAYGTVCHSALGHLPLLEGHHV

GPRK5 = GPRK5 (Homo sapiens, UniProt P34947)
Sequence of GPRK5 (P34947 whole entry): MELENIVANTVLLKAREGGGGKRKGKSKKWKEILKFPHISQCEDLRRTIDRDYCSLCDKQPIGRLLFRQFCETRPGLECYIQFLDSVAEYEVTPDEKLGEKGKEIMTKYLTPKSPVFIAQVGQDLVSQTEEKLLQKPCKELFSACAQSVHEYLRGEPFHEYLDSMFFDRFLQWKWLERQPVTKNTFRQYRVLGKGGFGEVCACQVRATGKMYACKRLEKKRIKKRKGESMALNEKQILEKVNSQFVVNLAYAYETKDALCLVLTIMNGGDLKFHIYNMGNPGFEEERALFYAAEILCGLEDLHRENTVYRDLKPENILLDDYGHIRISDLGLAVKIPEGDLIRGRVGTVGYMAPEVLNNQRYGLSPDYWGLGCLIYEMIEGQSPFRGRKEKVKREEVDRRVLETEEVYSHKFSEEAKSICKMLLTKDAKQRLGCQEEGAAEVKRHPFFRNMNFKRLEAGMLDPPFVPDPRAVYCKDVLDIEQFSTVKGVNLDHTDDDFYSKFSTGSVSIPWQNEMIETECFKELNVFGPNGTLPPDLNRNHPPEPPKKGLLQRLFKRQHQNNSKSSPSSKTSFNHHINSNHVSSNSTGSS

JNK2 = JNK2 (Homo sapiens, UniProt P45984)
Sequence of JNK2 (P45984 whole entry): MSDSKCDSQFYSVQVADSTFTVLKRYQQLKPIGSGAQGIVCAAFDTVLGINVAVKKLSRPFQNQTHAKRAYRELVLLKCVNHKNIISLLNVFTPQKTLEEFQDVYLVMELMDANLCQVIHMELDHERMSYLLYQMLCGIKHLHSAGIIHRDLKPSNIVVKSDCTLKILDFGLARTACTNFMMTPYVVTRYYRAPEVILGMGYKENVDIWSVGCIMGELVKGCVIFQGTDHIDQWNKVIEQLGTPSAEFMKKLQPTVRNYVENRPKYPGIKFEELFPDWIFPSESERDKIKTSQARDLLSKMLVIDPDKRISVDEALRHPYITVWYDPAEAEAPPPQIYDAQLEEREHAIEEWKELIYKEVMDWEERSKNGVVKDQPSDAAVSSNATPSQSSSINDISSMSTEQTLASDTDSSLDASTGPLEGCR

NEK2 = biological target: T4, NEK2 (Homo sapiens, UniProt P51955)
T4 sequence (P51955 1-445): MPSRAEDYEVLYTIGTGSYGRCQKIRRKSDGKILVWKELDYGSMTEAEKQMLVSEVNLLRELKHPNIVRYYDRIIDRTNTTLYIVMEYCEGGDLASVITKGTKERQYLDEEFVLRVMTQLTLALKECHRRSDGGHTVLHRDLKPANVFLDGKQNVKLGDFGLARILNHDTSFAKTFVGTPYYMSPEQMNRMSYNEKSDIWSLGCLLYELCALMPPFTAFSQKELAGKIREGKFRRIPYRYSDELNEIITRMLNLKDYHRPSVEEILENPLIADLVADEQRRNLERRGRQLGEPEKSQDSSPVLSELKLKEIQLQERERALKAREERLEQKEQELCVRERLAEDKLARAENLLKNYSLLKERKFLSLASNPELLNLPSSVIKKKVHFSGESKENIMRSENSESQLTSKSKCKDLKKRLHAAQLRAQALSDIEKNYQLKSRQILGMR

NQO2A = biological target: T5, NQO2A (Homo sapiens, UniProt P16083)
T5 sequence (P16083 1-231): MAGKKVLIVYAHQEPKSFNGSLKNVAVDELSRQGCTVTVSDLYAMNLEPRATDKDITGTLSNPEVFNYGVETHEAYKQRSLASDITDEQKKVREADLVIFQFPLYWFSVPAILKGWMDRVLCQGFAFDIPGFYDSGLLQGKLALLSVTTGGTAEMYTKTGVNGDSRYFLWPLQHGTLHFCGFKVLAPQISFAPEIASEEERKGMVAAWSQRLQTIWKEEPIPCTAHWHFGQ

Sequence of CaMK1d (Q8IU85 whole entry): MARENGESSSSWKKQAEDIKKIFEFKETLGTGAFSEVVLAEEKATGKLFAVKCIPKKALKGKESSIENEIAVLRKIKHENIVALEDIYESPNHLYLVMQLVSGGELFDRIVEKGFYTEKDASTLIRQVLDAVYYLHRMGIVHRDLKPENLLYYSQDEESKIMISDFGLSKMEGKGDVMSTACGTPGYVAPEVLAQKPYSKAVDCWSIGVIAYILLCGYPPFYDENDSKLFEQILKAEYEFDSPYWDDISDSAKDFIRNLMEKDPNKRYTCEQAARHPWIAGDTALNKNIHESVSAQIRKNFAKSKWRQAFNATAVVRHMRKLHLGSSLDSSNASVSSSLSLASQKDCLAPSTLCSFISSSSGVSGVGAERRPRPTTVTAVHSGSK

In the case of `COc1cc(N2CCN(C)CC2)ccc1Nc1ncc2cc(-c3ccc(-c4cccc(C)n4)cc3Cl)c(=O)n(CCCCN)c2n1` [compound 36, 8-(4-Aminobutyl)-6-(2-chloro-4-(6-methylpyridin-2-yl)phenyl)-2-((2-methoxy-4-(4-methylpiperazin-1-yl)phenyl)amino)pyrido[2,3-d]pyrimidin-7(8H)-one], the “dTm 36” value (CaMK1d) was 5.6 °C, the “dTm 36” value (CaMK4) was 3.2 °C and the “dTm 36” value (DAPK3) was 1.6 °C. The “dTm 36” value (DYRK2) was -0.4 °C, the “dTm 36” value (Erk7) was -0.5 °C and the “dTm 36” value (GPRK5) was -1.3 °C. For the same compound, the “dTm 36” value (JNK2) was -0.3 °C, the “dTm 36” value (NEK2) was 9.2 °C and the “dTm 36” value (NQO2A) was -1.0 °C.
In the case of `COc1ccc(O)c(Nc2ncc3cc(-c4ccc(-c5cccc(C)n5)cc4Cl)c(=O)n(CCCCN)c3n2)c1` [compound 34, 8-(4-Aminobutyl)-6-(2-chloro-4-(6-methylpyridin-2-yl)phenyl)-2-((2-hydroxy-5-methoxy-phenyl)amino)pyrido[2,3-d]pyrimidin-7(8H)-one], the “dTm 34” value (CaMK1d) was 3.9 °C, the “dTm 34” value (CaMK4) was 3.9 °C and the “dTm 34” value (DAPK3) was 1.5 °C. The “dTm 34” value (DYRK2) was 0.0 °C, the “dTm 34” value (Erk7) was -0.4 °C and the “dTm 34” value (GPRK5) was -0.7 °C. For the same compound, the “dTm 34” value (JNK2) was 0.3 °C, the “dTm 34” value (NEK2) was 8.4 °C and the “dTm 34” value (NQO2A) was -1.3 °C.
With `COc1cc(N2CCOCC2)ccc1Nc1ncc2cc(-c3ccc(-c4cccc(C)n4)cc3Cl)c(=O)n(CCCCN)c2n1` [compound 35, 8-(4-Aminobutyl)-6-(2-chloro-4-(6-methylpyridin-2-yl)phenyl)-2-((2-methoxy-4-morpholino-phenyl)amino)pyrido[2,3-d]pyrimidin-7(8H)-one] the “dTm 35” value (CaMK1d) was 5.8 °C, the “dTm 35” value (CaMK4) was 5.7 °C and the “dTm 35” value (DAPK3) was 3.2 °C. For the same compound, the “dTm 35” value (DYRK2) was -0.6 °C, the “dTm 35” value (Erk7) was 1.1 °C and the “dTm 35” value (GPRK5) was -2.1 °C. The “dTm 35” value (JNK2) was 0.1 °C, the “dTm 35” value (NEK2) was 10.6 °C and the “dTm 35” value (NQO2A) was -2.4 °C.
For `Cc1cccc(-c2ccc(-c3cc4cnc(Nc5ccc(F)c(CO)c5)nc4n(CCCCN)c3=O)c(Cl)c2)n1` [compound 33, 8-(4-Aminobutyl)-6-(2-chloro-4-(6-methylpyridin-2-yl)phenyl)-2-((4-fluoro-3-(hydroxymethyl)phenyl)amino)pyrido[2,3-d]pyrimidin-7(8H)-one], the “dTm 33” value (CaMK1d) was 5.9 °C, the “dTm 33” value (CaMK4) was 5.2 °C and the “dTm 33” value (DAPK3) was 1.9 °C. The “dTm 33” value (DYRK2) was -1.0 °C, the “dTm 33” value (Erk7) was 1.6 °C and the “dTm 33” value (GPRK5) was -0.8 °C. The “dTm 33” value (JNK2) was 3.0 °C, the “dTm 33” value (NEK2) was 10.6 °C and the “dTm 33” value (NQO2A) was 0.9 °C.
